{"source": "patent US4971993A", "about": "“Dipeptide derivatives and antihypertensive drugs containing them” (Ajinomoto Co., Inc., priority 1985, dated 1990)", "tested_on": "spontaneously hypertensive rats", "assay": "Antihypertensive activity: systolic blood pressure measured indirectly on conscious SHR after a single oral dose", "type": "in vivo", "details": "male; for Hours after Administration (time of lowest systolic blood pressure) / Systolic Blood Pressure, Lowest value after Administration: 0.05 mmole/kg aqueous solution, once force-fed into the stomach; for ΔBlood Pressure (systolic): 0.05 mmole/kg once orally, lowest value minus value before administration", "method": "The antihypertensive activity of the peptide derivatives as prepared above was determined.\nAs subject animals there were used 5 SHR which had been trained enough and been confirmed to be hypertensive spontaneously hypertensive rats (male, body weight of 400-440 g),per sample\nAs an instrument for measuring the blood pressure there was used Programmed Electro-Sphygmomanometer PE-300 (Narco Co., U.S.A.), and the blood pressure was indirectly measured on conscious rats.\nAn aqueous solution of a sample (0.05 mmole/kg) was once force-fed into the stomach by means of a peroal probe. As a control, deionized water was fed to the same animals as above.", "note": "Peptide text beside a SMILES is read from it. * marks the point of attachment. Mts = Cc1cc(C)c(S(=O)(=O)*)c(C)c1; Tos = Cc1ccc(S(=O)(=O)*)cc1"}
{"compound": "N-ethanesulfonyl-L-alanyl-L-proline potassium salt [Example 9]", "values": [{"measurement": "Hours after Administration (time of lowest systolic blood pressure)", "result": 7, "unit": "h"}, {"measurement": "Systolic Blood Pressure, Lowest value after Administration", "result": 213, "unit": "mmHg"}, {"measurement": "ΔBlood Pressure (systolic)", "result": -5, "unit": "mmHg"}]}
{"compound": "O=C(O)[C@@H]1CCCN1C(=O)[C@H](Cc1ccccc1)NS(=O)(=O)c1ccccc1", "note": "[Example 14, N-benzenesulfonyl-L-phenylalanyl-L-proline]", "values": [{"measurement": "Hours after Administration (time of lowest systolic blood pressure)", "result": 7, "unit": "h"}, {"measurement": "Systolic Blood Pressure, Lowest value after Administration", "result": 201, "unit": "mmHg"}, {"measurement": "ΔBlood Pressure (systolic)", "result": -18, "unit": "mmHg"}]}
{"compound": "C[C@H](NS(=O)(=O)c1cccc2ccccc12)C(=O)N1CCC[C@H]1C(=O)O", "note": "[Example 4, N-α-naphthalenesulfonyl-L-alanyl-L-proline]", "values": [{"measurement": "Hours after Administration (time of lowest systolic blood pressure)", "result": 7, "unit": "h"}, {"measurement": "Systolic Blood Pressure, Lowest value after Administration", "result": 185, "unit": "mmHg"}, {"measurement": "ΔBlood Pressure (systolic)", "result": -13, "unit": "mmHg"}]}
{"compound": "NCCCC[C@H](NS(=O)(=O)c1ccccc1)C(=O)N1CCC[C@H]1C(=O)O", "note": "[Example 19, N^α -benzenesulfonyl-L-lysyl-L-proline]", "values": [{"measurement": "Hours after Administration (time of lowest systolic blood pressure)", "result": 7, "unit": "h"}, {"measurement": "Systolic Blood Pressure, Lowest value after Administration", "result": 191, "unit": "mmHg"}, {"measurement": "ΔBlood Pressure (systolic)", "result": -28, "unit": "mmHg"}]}
{"compound": "O=C(O)[C@@H]1CCCN1C(=O)CNS(=O)(=O)c1ccccc1", "note": "[Example 10, N-benzenesulfonylglycyl-L-proline]", "values": [{"measurement": "Hours after Administration (time of lowest systolic blood pressure)", "result": 7, "unit": "h"}, {"measurement": "Systolic Blood Pressure, Lowest value after Administration", "result": 201, "unit": "mmHg"}, {"measurement": "ΔBlood Pressure (systolic)", "result": -9, "unit": "mmHg"}]}
{"compound": "O=C(O)CC[C@H](NS(=O)(=O)c1ccccc1)C(=O)N1CCC[C@H]1C(=O)O", "note": "[Example 18, N-benzenesulfonyl-L-glutamyl-L-proline]", "values": [{"measurement": "Hours after Administration (time of lowest systolic blood pressure)", "result": 7, "unit": "h"}, {"measurement": "Systolic Blood Pressure, Lowest value after Administration", "result": 189, "unit": "mmHg"}, {"measurement": "ΔBlood Pressure (systolic)", "result": -14, "unit": "mmHg"}]}
{"compound": "C[C@H](NS(=O)(=O)c1ccccc1N)C(=O)N1CCC[C@H]1C(=O)O", "note": "[Example 6, N-o-aminobenzenesulfonyl-L-alanyl-L-proline]", "values": [{"measurement": "Hours after Administration (time of lowest systolic blood pressure)", "result": 7, "unit": "h"}, {"measurement": "Systolic Blood Pressure, Lowest value after Administration", "result": 197, "unit": "mmHg"}, {"measurement": "ΔBlood Pressure (systolic)", "result": -35, "unit": "mmHg"}]}
{"compound": "C[C@H](NS(=O)(=O)Cc1ccccc1)C(=O)N1CCC[C@H]1C(=O)O", "note": "[Example 7, N-benzylsulfonyl-L-alanyl-L-proline]", "values": [{"measurement": "Hours after Administration (time of lowest systolic blood pressure)", "result": 7, "unit": "h"}, {"measurement": "Systolic Blood Pressure, Lowest value after Administration", "result": 194, "unit": "mmHg"}, {"measurement": "ΔBlood Pressure (systolic)", "result": -21, "unit": "mmHg"}]}
{"compound": "CC[C@H](C)[C@H](NS(=O)(=O)c1ccccc1)C(=O)N1CCC[C@H]1C(=O)O", "note": "[Example 12, N-benzenesulfonyl-L-isoleucyl-L-proline]", "values": [{"measurement": "Hours after Administration (time of lowest systolic blood pressure)", "result": 7, "unit": "h"}, {"measurement": "Systolic Blood Pressure, Lowest value after Administration", "result": 191, "unit": "mmHg"}, {"measurement": "ΔBlood Pressure (systolic)", "result": -21, "unit": "mmHg"}]}
{"compound": "C[C@H](NS(=O)(=O)c1ccccc1)C(=O)N1CCC[C@H]1C(=O)O", "note": "[Example 1, N-benzenesulfonyl-L-alanyl-L-proline]", "values": [{"measurement": "Hours after Administration (time of lowest systolic blood pressure)", "result": 8, "unit": "h"}, {"measurement": "Systolic Blood Pressure, Lowest value after Administration", "result": 185, "unit": "mmHg"}, {"measurement": "ΔBlood Pressure (systolic)", "result": -28, "unit": "mmHg"}]}
{"compound": "O=C(O)[C@@H]1CCCN1C(=O)[C@@H](NS(=O)(=O)c1ccccc1)c1ccccc1", "note": "[Example 13, N-benzenesulfonyl-L-phenylglycyl-L-proline]", "values": [{"measurement": "Hours after Administration (time of lowest systolic blood pressure)", "result": 7, "unit": "h"}, {"measurement": "Systolic Blood Pressure, Lowest value after Administration", "result": 204, "unit": "mmHg"}, {"measurement": "ΔBlood Pressure (systolic)", "result": -8, "unit": "mmHg"}]}
{"compound": "Cc1cc(C)c(S(=O)(=O)N[C@@H](C)C(=O)N2CCC[C@H]2C(=O)O)c(C)c1", "note": "[Example 2, N-mesitylenesulfonyl-L-alanyl-L-proline] (Mts-Ala-Pro-OH)", "values": [{"measurement": "Hours after Administration (time of lowest systolic blood pressure)", "result": 7, "unit": "h"}, {"measurement": "Systolic Blood Pressure, Lowest value after Administration", "result": 191, "unit": "mmHg"}, {"measurement": "ΔBlood Pressure (systolic)", "result": -11, "unit": "mmHg"}]}
{"compound": "Cc1ccc(S(=O)(=O)N[C@@H](C)C(=O)N2CCC[C@H]2C(=O)O)cc1", "note": "[Example 3, N-p-toluenesulfonyl-L-alanyl-L-proline] (Tos-Ala-Pro-OH)", "values": [{"measurement": "Hours after Administration (time of lowest systolic blood pressure)", "result": 7, "unit": "h"}, {"measurement": "Systolic Blood Pressure, Lowest value after Administration", "result": 194, "unit": "mmHg"}, {"measurement": "ΔBlood Pressure (systolic)", "result": -12, "unit": "mmHg"}]}
{"compound": "2-benzenesulfonylamino isobutyryl-L-proline sodium salt [Example 21]", "values": [{"measurement": "Hours after Administration (time of lowest systolic blood pressure)", "result": 7, "unit": "h"}, {"measurement": "Systolic Blood Pressure, Lowest value after Administration", "result": 193, "unit": "mmHg"}, {"measurement": "ΔBlood Pressure (systolic)", "result": -17, "unit": "mmHg"}]}
{"compound": "C[C@H](NS(=O)(=O)c1ccccc1[N+](=O)[O-])C(=O)N1CCC[C@H]1C(=O)O", "note": "[Example 5, N-α-nitrobenzenesulfonyl-L-alanyl-L-proline]", "values": [{"measurement": "Hours after Administration (time of lowest systolic blood pressure)", "result": 7, "unit": "h"}, {"measurement": "Systolic Blood Pressure, Lowest value after Administration", "result": 193, "unit": "mmHg"}, {"measurement": "ΔBlood Pressure (systolic)", "result": -18, "unit": "mmHg"}]}
{"compound": "C[C@H](NS(=O)(=O)c1ccccc1C(=O)O)C(=O)N1CCC[C@H]1C(=O)O", "note": "[Example 8, N-o-carboxybenzenesulfonyl-L-alanyl-L-proline]", "values": [{"measurement": "Hours after Administration (time of lowest systolic blood pressure)", "result": 7, "unit": "h"}, {"measurement": "Systolic Blood Pressure, Lowest value after Administration", "result": 194, "unit": "mmHg"}, {"measurement": "ΔBlood Pressure (systolic)", "result": -9, "unit": "mmHg"}]}
{"compound": "CC(C)[C@H](NS(=O)(=O)c1ccccc1)C(=O)N1CCC[C@H]1C(=O)O", "note": "[Example 11, N-benzenesulfonyl-L-valyl-L-proline]", "values": [{"measurement": "Hours after Administration (time of lowest systolic blood pressure)", "result": 7, "unit": "h"}, {"measurement": "Systolic Blood Pressure, Lowest value after Administration", "result": 203, "unit": "mmHg"}, {"measurement": "ΔBlood Pressure (systolic)", "result": -11, "unit": "mmHg"}]}
{"compound": "O=C(O)[C@@H]1CCCN1C(=O)[C@@H]1CCCN1S(=O)(=O)c1ccccc1", "note": "[Example 16, N-benzenesulfonyl-L-prolyl-L-proline]", "values": [{"measurement": "Hours after Administration (time of lowest systolic blood pressure)", "result": 7, "unit": "h"}, {"measurement": "Systolic Blood Pressure, Lowest value after Administration", "result": 195, "unit": "mmHg"}, {"measurement": "ΔBlood Pressure (systolic)", "result": -21, "unit": "mmHg"}]}
{"compound": "O=C(O)[C@@H]1CCCN1C(=O)[C@H](CO)NS(=O)(=O)c1ccccc1", "note": "[Example 17, N-benzenesulfonyl-L-seryl-L-proline]", "values": [{"measurement": "Hours after Administration (time of lowest systolic blood pressure)", "result": 7, "unit": "h"}, {"measurement": "Systolic Blood Pressure, Lowest value after Administration", "result": 194, "unit": "mmHg"}, {"measurement": "ΔBlood Pressure (systolic)", "result": -22, "unit": "mmHg"}]}
{"compound": "CSCC[C@H](NS(=O)(=O)c1ccccc1)C(=O)N1CCC[C@H]1C(=O)O", "note": "[Example 15, N-benzenesulfonyl-L-methionyl-L-proline]", "values": [{"measurement": "Hours after Administration (time of lowest systolic blood pressure)", "result": 4, "unit": "h"}, {"measurement": "Systolic Blood Pressure, Lowest value after Administration", "result": 206, "unit": "mmHg"}, {"measurement": "ΔBlood Pressure (systolic)", "result": -13, "unit": "mmHg"}]}
